We go through two substances from patent US8362201B2 (priority 2000, dated 2013).

Assay [1] has as its system whole-cell calcium channel currents in isolated cockroach neurons. To be noted: 0.1 µM; cited from earlier work.
Assay [2] concerns insect versus vertebrate calcium channels.
The subject of assay [3] is bee brain calcium channel (ICa). It counts as cell-based, Apis mellifera.
The test system of a further assay is mouse sensory neuron ICa. It is filed as cell-based.

Regarding omega-atracotoxin-Hv1a [ω-ACTX-Hv1a], the “inhibition of whole-cell calcium channel currents” value in assay [1] is 25±10%.

By EC50 is commonly meant the concentration needed to bring the measured effect to its halfway point. Take “ω-agatoxin-IVA (KKKCIAKDYGRCKWGGTPCCRGRGCICSIMGTNCECKPRLIMEGLGLA)”: in assay [2], the “preference for insect versus vertebrate calcium channels” value was 2 fold. In addition, the “concentration for maximum inhibition of ICa” value in assay [3] was more than 100 nM. Moreover, the EC50 is 10 nM in assay [3] (read-out: EC50 for inhibition of ICa) and approximately 20 nM in the assay with mouse sensory neuron ICa (read-out: EC50 for inhibition of a component of ICa). In addition, the “maximum ICa inhibition” value in the assay with mouse sensory neuron ICa is recorded as approximately 40%.
